Test results taken from patent publication US20150018411A1, “COMPOUNDS AS PPAR BETA/DELTA INHIBITORS FOR TREATING PPAR BETA/DELTA-MEDIATED DISEASES” (PHILIPPS-UNIVERSITAT MARBURG, priority 2011, published 2015).
“Also recorded” adds a separate entry of the source.

Columns and labels:
ANGPTL4 gene expression [1] = assay: ANGPTL4 expression (qPCR) in breast cancer cell line MDA-MB-231; assay type: cell-based, human; conditions: for TGF-beta2-induced ANGPTL4 expression: MDA-MB-231, 1 μM pre-treatment 24 hours, then TGF-beta2 2 ng/ml for 6 hours
Description: FIG. 6: Influence of the substances of this invention compound 1 and compound 5 on the induction of ANGPTL4 expression by TGF-beta2 in the breast cancer cell line MDA-MB-231. • The human breast cancer cell line MDA-MB-231 is pre-treated for 24 hours with 1 μM of the substances of this invention compound 1 or compound 5, respectively, and subsequently stimulated with TGF-beta2 (2 ng/ml) for 6 hours. The relative ANGPTL4 expression is determined by qPCR.
The influence of substances of this invention on PPAR-beta/delta regulated genes like for example ANGPTL4 which codes for the angiopoietin-like protein ANGPTL4 is assessed in different cells with a confluence of 70% to 80% in a 6-well cell culture plate. For this purpose, cultivated human myofibroblasts (WPMY-1), peritoneal mouse macrophages or cells of the human breast cancer cell line MDA-MB-231 are treated for 24 hours with 1 μM of the substances of this invention. Cells of the breast cancer cell line are in addition stimulated for 6 hours with TGF-beta2 (2 ng/ml) which is commercially available. Subsequently, RNA is isolated from the cells by procedures known to the expert and analyzed by quantitative PCR (qPCR, real time qPCR, RT-qPCR) also known to those skilled in the art. For this, cDNA is synthesized using 0.25 μg to 1 μg of RNA, oligo(dT)-primers and a commercially available cDNA synthesis kit. qPCR is then conducted in a Mx3000P RT-qPCR system (Stratagene, La Jolla, Calif., USA) according to the manufacturer's instructions with 40 cycles, an annealing temperature of 60° C., and for example human ANGPTL4 primers (fw: […]; rv: […]) and the ribosomal I27 (fw: […]; rv: […]) as normalizing gene known to the expert in this field. […] The respective IC50 value (mean inhibitory concentration) for substances of this invention compound 1 and compound 2 is depicted in FIG. 5 B and is maximal 20 nM in WPMY-1 cells and maximal 30 nM in peritoneal mouse macrophages, respectively.

ANGPTL4 gene expression [2] = assay: ANGPTL4 gene expression (qPCR) in WPMY-1 myofibroblasts; assay type: cell-based, human; conditions: Homo sapiens, 6 h; WPMY-1 cells, six hours treatment; read-out: IC50 (mean inhibitory concentration), endogenous ANGPTL4 expression
Description: (§1) FIG. 5: Influence of the substances of this invention comparative compound (CC) 2, compound 1, compound 5, compound 2 and compound 3 on ANGPTL4 gene expression. • (A) Comparison of relative ANGPTL4 expression, (B) mean inhibitory concentration of substances of this invention. (A) Human myofibroblasts (WPMY-1) are treated for 24 hours with the substances of this invention (1 μM), then RNA is isolated, the cDNA synthesized and analyzed by qPCR, normalized to L27 gene expression. (B) Titration of the effect of substances of this invention on the endogenous ANGPTL4 expression in WPMY-1 cells (left) or peritoneal mouse macrophages (right) after cells have been treated for six hours with the substances of this invention compound 1 and compound 2, respectively; RNA isolation, cDNA synthesis and qPCR as described for (A). The relative expression is calculated in relation to DMSO-treated cells. All values are average values of triplicates (+1-standard deviation). Asterisks (***, **, *) indicate significant differences to DMSO-treated cells (***: p<0.001 after t-test; *: p <0.05).
The influence of substances of this invention on PPAR-beta/delta regulated genes like for example ANGPTL4 which codes for the angiopoietin-like protein ANGPTL4 is assessed in different cells with a confluence of 70% to 80% in a 6-well cell culture plate. For this purpose, cultivated human myofibroblasts (WPMY-1), peritoneal mouse macrophages or cells of the human breast cancer cell line MDA-MB-231 are treated for 24 hours with 1 μM of the substances of this invention. Cells of the breast cancer cell line are in addition stimulated for 6 hours with TGF-beta2 (2 ng/ml) which is commercially available. Subsequently, RNA is isolated from the cells by procedures known to the expert and analyzed by quantitative PCR (qPCR, real time qPCR, RT-qPCR) also known to those skilled in the art. […]

ANGPTL4 gene expression [3] = assay: ANGPTL4 gene expression (qPCR) in peritoneal mouse macrophages; assay type: cell-based; conditions: Macrophage, 6 h, six hours treatment, read-out: IC50 (mean inhibitory concentration), endogenous ANGPTL4 expression
Description: as §1, with “All values are average values of triplicates (+1-standard deviation). Asterisks (***, **, *) indicate significant differences to DMSO-treated cells (***: p<0.001 after t-test; *: p <0.05).” left out
The influence of substances of this invention on PPAR-beta/delta regulated genes like for example ANGPTL4 which codes for the angiopoietin-like protein ANGPTL4 is assessed in different cells with a confluence of 70% to 80% in a 6-well cell culture plate. […] Subsequently, RNA is isolated from the cells by procedures known to the expert and analyzed by quantitative PCR (qPCR, real time qPCR, RT-qPCR) also known to those skilled in the art. […]

GST-PPAR beta/delta LBD = molecular target: T1, GST-PPAR beta/delta LBD (Homo sapiens, UniProt Q03181); assay: Ligand-induced binding of corepressor peptide SMRT-ID2, TR-FRET; assay type: biochemical; conditions: concentration dependent
T1 construct: GST-PPAR beta/delta LBD (GST=glutathione S-transferase); purchased Invitrogen, Darmstadt, Germany
T1 sequence (Q03181 211-439 limits assumed): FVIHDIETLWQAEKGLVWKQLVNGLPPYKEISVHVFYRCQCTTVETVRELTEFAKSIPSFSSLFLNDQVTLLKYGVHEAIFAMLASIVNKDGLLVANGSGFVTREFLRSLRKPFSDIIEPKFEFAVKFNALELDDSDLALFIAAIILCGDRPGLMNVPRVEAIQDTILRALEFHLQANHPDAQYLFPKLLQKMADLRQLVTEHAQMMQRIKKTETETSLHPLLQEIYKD
Description: FIG. 2: Induction of corepressor peptide binding to GST-PPAR beta/delta ligand binding domain (LBD) in vitro in dependency of the concentration of the substances of this invention comparative compound (CC) 2, compound 1 (A), compound 2 (B), compound 3 (C), compound 4 (D) and compound 5 (E). The interaction of fluorescein-labeled SMRT-ID2 peptide with recombinant GST-PPAR beta/delta LBD bound to a terbium-labeled anti-GST antibody is determined by TR-FRET analysis. Shown is the ratio of fluorescence intensity at 520 nm (fluorescein emission, excited by terbium emission) and 495 nm (terbium emission). All data points represent average values of triplicates (+/−standard deviation).
B) The ligand-induced binding of the commercially available fluorescein-labeled corepressor peptide SMRT-ID2 ([…]) (Invitrogen, Darmstadt, Germany) to GST-PPAR beta/delta is for example measured by TR-FRET analysis using a terbium-labeled anti-GST antibody in a VICTOR3V Multilabel Counter (WALLAC 1420; PerkinElmer Life and Analytical Sciences, Rodgau, Germany). The measurement is performed in a buffer composed of 100 mM KC, 20 mM Tris pH 7.9, 0.01% Triton X100 and 1 μg/μL bovine serum albumin.

ANGPTL4 gene expression [4] = assay: Stimulus-induced ANGPTL4 expression in human fibroblasts; assay type: cell-based

| IC50 (ANGPTL4 gene expression [3]) [nM] | Structure (SMILES) | TGF-beta2-induced ANGPTL4 expression (ANGPTL4 gene expression [1]) | IC50 (ANGPTL4 gene expression [2]) [nM] | ANGPTL4 expression (ANGPTL4 gene expression [1]; breast cancer cell line MDA-MB-231-luc21H4) | induction of interaction of PPAR beta/delta LBD with corepressor peptide SMRT-ID2 (GST-PPAR beta/delta LBD) | induction of ANGPTL4 expression by TGF-beta1, TGF-beta2, dexamethasone or TPA (ANGPTL4 gene expression [4]) |
| --- | --- | --- | --- | --- | --- | --- |
|  | COC(=O)c1sccc1S(=O)(=O)Nc1ccc(NC(C)(C)C)cc1OC [compound 5, methyl 3-(N-(4-(tert-butylamino)-2-methoxyphenyl)sulfamoyl)thiophene-2-carboxylate] | does not influence the induction of ANGPTL4 expression |  |  |  |  |
| ≤ 30 | CCCCCCNc1ccc(NS(=O)(=O)c2ccsc2C(=O)OC)c(OC)c1 [compound 1, methyl 3-(N-(4-(hexylamino)-2-methoxyphenyl)sulfamoyl)thiophene-2-carboxylate] | loss of TGF-beta2-induced ANGPTL4 expression | ≤ 20 | drastic reduction | clearly demonstrate the interaction; also recorded: induce | significantly be reduced |
| ≤ 30 | CCCCCCNc1ccc(NS(=O)(=O)c2ccsc2C(=O)OC)cc1OC [compound 2, methyl 3-(N-(4-(hexylamino)-3-methoxyphenyl)sulfamoyl)thiophene-2-carboxylate] |  | ≤ 20 |  | clearly demonstrate the interaction; also recorded: induce |  |
